# Where two headings read alike, the source gives them in different places.
# How the values were obtained:
# plasmid DNA = test: Dissociation of DNA from DNA/liposome complexes by glutathione, agarose gel electrophoresis; format: physicochemical
# Experimental: Dissociation of DNA from DNA/liposome complexes by glutathione: One μg of plasmid DNA was dissolved in 10 (L of phosphate-buffer saline (PBS). Cationic liposomes […] or CHSTAEA/DOPE were added to pDNA solution at the increasing weight ratios of 2/1, respectively. All calculations of the weight of liposomes in this paper were based on the weight of cationic lipids only. After the complexes were incubated for 30 minutes at room temperature, 10 (L of 20 mM of glutathione in PBS (pH=7.3) was added to the mixture to reach a final concentration of glutathione of 10 mM. The mixtures were incubated at 37° C. for 20 hours. Released DNA was visualized by 1% agarose gel electrophoresis.
# DNA was complexed with a disulfide cationic liposome CHDTAEA/DOPE or its non-disulfide cationic liposome analog CHSTAEA/DOPE at the cationic lipid to DNA ratio of 2/1. […] In the presence of 10 mM of glutathione, >50% of DNA was released from complexes after the incubation. […] The complexes with the ratios of cationic liposome/DNA from 3/1 to 5/1 were also tested in the release assay with similar same results.
# CHO cells [1] = test: Transfection of pGL3-luciferase plasmid; format: cell-based, Chinese hamster
# Experimental: (§1) FIGS. 5A and 5B show a comparison of the transfection of pGL3-luciferase plasmid by CHDTAEA/DOPE, CHSTAEA/DOPE, and DC-Chol in CHO and SKnSH cells. A fixed dose 2 μg/well of pGL3 DNA was mixed with increasing weight ratios of cationic liposomes (calculation based on cationic lipid) and used for transfection. FIG. 5A: Transfection in CHO cells, FIG. 5B: Transfection in SKnSH cells. .diamond-solid.CHDTAEA/DOPE, .box-solid.CHSTAEA/DOPE; .tangle-solidup.DC-Chol/DOPE. Data is shown as mean (S. D. (n=3).
# (§2) Cell culture and gene transfection using CHDTAEA and CHSTAEA: Chinese hamster ovary (CHO) and SKnSH cells were obtained from American Tissue Type Collection (Rockville, Md.). […] DNA/liposome complexes in 100 (L of serum free media were added to each well and incubated for 4.5 hours. After the 4.5-hour transfection time, the transfection media were changed to growth media and cells were incubated for another 24 hours. Luciferase activity was measured using a standard luciferase assay (Thierry, A. R., P. Rabinovich, B. Peng, L. C. Mahan, J. L. Bryant, R. C. Gallo (1997) Gene Ther 4:226-237). Luciferase activity in transfected cells was expressed as RLU per well. All conditions for transfection were strictly kept the same for each different kind of liposomes. Experiments were repeated at least twice, and experiments were done in triplicate within a given series.
# SKnSH cells [2] = test: Transfection of pGL3-luciferase plasmid; format: cell-based
# Experimental: as §1, §2
# CHO and SKnSH cells = test: Cytotoxicity of liposome/DNA complexes, both cell lines (FIG. 6); format: cell-based
# Experimental: FIGS. 6A and 6B show the toxicity assays of cytotoxicity of the liposome/DNA complexes was studied in CHO and SKnSH cells. A fixed dose of 1 μg/well of pDNA was mixed with increasing amount of cationic liposomes and used in the toxicity assay. Cell viability was calculated as percentage of survival cells as stated in the Methods section. FIG. 6A: Toxicity in CHO cells. FIG. 6B: Toxicity in SKnSH cells. .diamond-solid.CHDTAEA/DOPE, .box-solid.CHSTAEA/DOPE; .tangle-solidup.DC-Chol/DOPE. Data is shown as mean (S. D. (n=3).
# Toxicity Assay of CHDTAEA, CHSTAEA and DC-Chol: The toxicity of CHDTAEA/DOPE, CHSTAEA/DOPE and DC-Chol/DOPE in the CHO and SKnSH cell line was determined using a CARE-LASS (a calcein release assay). Before the assay, cells were plated in a 96 well plate (1(10^5 cells/well) and grown to 60-80% confluence overnight. To test the toxicity of the DNA/liposome complexes, a fixed amount of DNA (1 μg/well) was used to complex with increasing amount of liposomes. The ratios of DNA to liposome of different treatments were the same as the ratios used in transfection studies. The cytotoxicity of three liposomes were measured and expressed according to our previous procedure (Tang, F., J. A. Hughes (1998) Biochem Biophys Res Commun 242:141-145). Each experiment was performed in triplicate and repeated at least twice.
# 293 cells = test: Luciferase gene transfection; format: cell-based
# COS-1 cells = test: Luciferase gene transfection; format: cell-based
# SKnSH cells [3] = test: Luciferase gene transfection; format: cell-based
# CHO cells [4] = test: Luciferase gene transfection (second set of experiments); format: cell-based, Chinese hamster
# Experimental: (§3) When DNA transfection was carried out in serum free media, the DNA/liposome complexes usually incubated with cells for about 4-5 hours. […] Biophys. Acta 1111, 239-246). For gene transfection in growth media containing 10% FBS, the toxicity of complexes may be alleviated, and also the transfection may be inhibited by enzymes or slowed down by negatively charged macromolecules.
# Biophys. Acta 1111, 239-246).
# [5] = tested on: COS 1 cells and CHO cells; test: Luciferase gene transfection (second set of experiments), COS 1 and CHO; format: cell-based; conditions: serum free media
# Experimental: (§4) In another set of experiments COS 1 and Chinese hamster ovary (CHO) cells were maintained in DMEM (high glucose) and (-MEM) respectively, and supplemented with 10% fetal bovine serum (FBS) and antibiotics (penicillin 100 g/ml and streptomycin 100 μg/ml). All cells were kept in 5% CO2 and at 37° C. in humidified air. Cell lines were cultured and seeded in 24 well plates (2×10^5), and grown to 60-80% confluence in 1 ml of media with serum. DNA/lipid complexes were made and incubated at room temperature in serum free media for 5-10 minutes and used for transfection. Before transfection, growth media containing serum was changed to serum free media and for the experiment to test serum sensitivity, growth media were changed to fresh growth media and the transfection mixtures were added to the cells. After a certain period of time for the specific experiments, the media was changed to growth media containing serum, and the cells were grown for another 48 hours. Following transfection and incubation, cells were rinsed twice with phosphate buffer saline. 100 μL of luciferase lysis buffer (0.1 M potassium phosphate buffer pH 7.8, 2 mM EDTA, 1% Triton X-100, 1 mM DTT) was added to the cells. The cells were lysed with shaking at room temperature for 15 minutes. Luciferase activity was quantified by using a Monolight 2010 Luminometer. 100 µl of luciferase assay buffer (30 mM tricine, 3 mM ATP, 15 mM MgSO4, 10 mM DDT, pH=7.8) and 2 μL of cell lysate were added to a 100 l injection of 1 mM D-luciferin, pH=6.3 (Molecular Probes). The light emission over a 10 second reaction period was integrated. […] 2 l of cells lysate was used for luciferase assay. The total protein concentration in the supernatant was measured by the BCA protein assay reagent (Pierce, Rockford, Ill.). Luciferase activity in cultured cells was expressed as RLU per mg of protein. Each experiment was repeated at least twice, and within in a series, experiments were done in triplicate.
# (§5) Comparison experiments were done by using a fixed amount of DNA (3 g/well). Transfection activity of six ratios of cationic lipid to DNA: 1/1, 2/1, 3/1, 4/1, 8/1, and 10/1 (w/w) were tested in COS 1 cells and CHO cells. […] Since serum was reported to decrease the transfection activity of some cationic liposomes, transfection was studied both in serum free media and growth media containing 10% of FBS.
# CHO cells [6] = test: Transfection efficiency assay (green fluorescence protein, pUF2 DNA); format: cell-based, Chinese hamster; conditions: optimal transfection ratio
# Experimental: Transfection efficiency assay: The optimal weight ratio for transfection of each liposome was used. […] Complexes were incubated with CHO cells in serum free media for 4.5 hour then the media was changed to growth media and further incubated for 20 hours. Transfection efficiency was determined by counting the number of green fluorescence cells compared with all cells in the field of vision under (20 magnification using a Nikon Diaphot inverted microscope). Each transfection was done in triplicate and three separate counts were made for each well.
# [7] = Aggregation of transfection complexes during transfection; format: physicochemical
# Experimental: The lack of physical stability of liposome/DNA complexes affects the gene transfection activity (Caplen, N. J., E. Kinrade, F. Sorgi, X Gao, D. Gruenert, C. Couttelle, L. Huang, E. W . F. W. Alton, R. Williamson (1995) Gene Ther. 2:603). […] The interaction force between primary amino groups and DNA is not as strong as the interaction force of a quaternary amino group with DNA and is dependent on the local environment.
# as §3
# COS 1 cells = test: Luciferase gene transfection (second set of experiments)
# Experimental: as §4, §5
# [8] = CHO cells, growth media containing 10% FBS
# [9] = CHO, serum free, optimal ratio of each liposome
# [10] = weight ratio 10/1 (charge ratio 6/1(+/-))
structure (smiles),measurement,setting,value
"CC(C)CCC[C@@H](C)[C@H]1CC[C@H]2[C@@H]3CC=C4C[C@@H](OC(=O)CSSCC(=O)NCCN(CCN)CCN)CC[C@]4(C)[C@H]3CC[C@]12C [CHDTAEA, Cholesteryl hemidithiodiglycolyl tris(aminoethyl)amine]",release of complexed DNA,plasmid DNA; presence of glutathione,released more than half of complexed DNA
same,transfection activity vs non-disulfide analog CHSTAEA,CHO cells [1],greater transfection activity than its non-disulfide analog CHSTAEA
same,transfection activity vs non-disulfide analog CHSTAEA,SKnSH cells [2],greater transfection activity than its non-disulfide analog CHSTAEA
"CC(C)CCC[C@@H](C)[C@H]1CC[C@H]2[C@@H]3CC=C4C[C@@H](OC(=O)CCC(=O)NCCN(CCN)CCN)CC[C@]4(C)[C@H]3CC[C@]12C [CHSTAEA, Cholesteryl hemisuccinyl tris(aminoethyl)amine]",release of DNA from complexes,"plasmid DNA; in both reductive and non-reductive environments, 20 hours",did not release DNA at any conditions after incubation for 20 hours
same,cytotoxicity vs CHDTAEA,CHO and SKnSH cells,much greater cytotoxicity
"CC(C)CCC[C@@H](C)[C@H]1CC[C@H]2[C@@H]3CC=C4C[C@@H](OC(=O)NCCN(C)C)CC[C@]4(C)[C@H]3CC[C@]12C [DC-Chol, Cholesteryl N-(dimethylaminoethyl)carbamate, reference compound]",cytotoxicity vs CHDTAEA,CHO and SKnSH cells; FIG. 6,much greater cytotoxicity
"CCCCCCCC/C=C\CCCCCCCC(=O)OC[C@H](COC(=O)CCC(=O)OCCSSCCOC(=O)C(N)CCCN)OC(=O)CCCCCCC/C=C\CCCCCCCC (some centres unmarked) [DOGSDSO, 1',2'-dioleoyl-sn-glycero-3'-succinyl-2-hydroxyethyl disulfide ornithine conjugate]",effect on transfection activity compared to DOGSHDO,293 cells,greater than 50 fold
same,effect on transfection activity compared to DOGSHDO,COS-1 cells,greater than 50 fold
same,increase in transfection activity compared to DOGSHDO,SKnSH cells [3],4 fold
same,gene expression on further increase of DNA to 7 μg,CHO cells [4]; CHO,decrease of gene expression (p<0.0232)
same,"gene expression, 5 μg vs 6 μg of DNA",CHO cells [4]; CHO,no significant difference of gene expression between the treatments of 5 μg of DNA and 6 μg of DNA (p>0.6528)
same,"luciferase gene expression, 5 μg of DNA, vs 7 μg of DNA by DOGSHDO",CHO cells [4]; CHO,14 times higher
same,transfection time of highest transfection activity,CHO cells [4]; [8],12 h
same,luciferase gene expression,"CHO cells [4]; CHO, 5 μg of DNA",9.03E+08
same,"optimal transfection activity, times higher than DOTAP or DOGSHDO","CHO cells [4]; CHO, growth media with serum",3 times
same,transfection efficiency vs DOGSHDO,"CHO cells [4]; CHO, lipid/DNA 10/1",higher transfection efficiency
same,"transfection activity, times higher than DOGSHDO",CHO cells [4]; [9],3 times
same,"transfection activity, times higher than DOTAP",CHO cells [4]; [9],2 times
same,amount of DNA at saturation of system,"CHO cells [4]; CHO, transferred by 50 μg of DOGSDSO",5 µg
same,effect of further increase of liposome amount above 10/1,[5],caused cytotoxicity and decreased the transfection activity
same,optimal weight ratio of cationic lipid to DNA in transfection,[5],10/1
same,transgene expression efficiency (green fluorescence protein),CHO cells [6],20-25%
same,aggregation of transfection complexes,[7]; [10],did not aggregate during transfection
same,transfection activity in the presence of serum,"COS 1 cells; 10% FBS, COS-1 cells",equally active in the presence of 10% FBS
same,"luciferase gene expression, 2 g of pDNA, vs 7 g of pDNA with DOGSHDO",COS 1 cells; COS 1,3 time higher
same,luciferase gene expression,"COS 1 cells; COS 1, 2 g of pDNA",1.18E+09
same,transfection activity in growth media vs serum free media,"COS 1 cells; COS 1, 12 hours",comparable to transfection activity in serum free media
same,transfection activity (luciferase),"COS 1 cells; COS 1, growth media (10% FBS), 12 hours",5.9×10^8 RLU/mg protein
same,"highest transfection activity, times higher than DOGSHDO","COS 1 cells; COS 1, growth media with serum",3 times
same,"highest transfection activity, times higher than DOTAP","COS 1 cells; COS 1, growth media with serum",2 times
same,amount of DNA at saturation of system,"COS 1 cells; COS 1, lipid/DNA 10/1",2 g
same,transgene expression on increase of DNA from 2 g to 7 g,"COS 1 cells; COS 1, lipid/DNA 10/1",no significant increase of transgene expression (p>0.2319)
same,"transfection activity, times higher than DOGSHDO","COS 1 cells; COS 1, serum free, optimal ratio of each liposome",11 times
same,"transfection activity, times higher than DOTAP","COS 1 cells; COS 1, serum free, optimal ratio, DOTAP at 1:1",6 times
same,amount of DNA at saturation of system,"COS 1 cells; COS-1 cells, optimal DNA/liposome ratio",2e-06 g
same,"expression of luciferase at lipid/DNA ratios 1/1, 2/1, 3/1, 4/1 (w/w)",COS 1 cells; growth media with serum,not statistically different (p>0.2782)
"CCCCCCCC/C=C\CCCCCCCC(=O)OCC(COC(=O)CCC(=O)OCCCCCCOC(=O)[C@@H](N)CCCN)OC(=O)CCCCCCC/C=C\CCCCCCCC (some centres unmarked) [DOGSHDO, 1',2'-dioleyl-sn-glycero-3'-succinyl-1,6-hexanediol ornithine conjugate]",gene expression with increasing amount of DNA/liposome,CHO cells [4]; CHO,gene expression kept increasing
same,transfection time of highest transfection activity,CHO cells [4]; [8],12 h
same,luciferase gene expression,"CHO cells [4]; CHO, 7 μg of DNA",6.5E+07
same,effect of further increase of liposome amount above 10/1,[5],caused cytotoxicity and decreased the transfection activity
same,optimal weight ratio of cationic lipid to DNA in transfection,[5],10/1
same,transgene expression efficiency (green fluorescence protein),CHO cells [6],6-7%
same,aggregation of transfection complexes,[7]; [10],did not aggregate during transfection
same,saturation of system,"COS 1 cells; 7 μg of DNA, COS-1 cells",did not reach the saturation
same,luciferase gene expression,"COS 1 cells; COS 1, 7 g of pDNA",3.84E+08
same,transgene expression with increasing complexes,"COS 1 cells; COS 1, lipid/DNA 10/1",increased with the increase of DNA/DOGSHDO complexes (p<0.0071) for the system did not reach saturation
same,"luciferase expression, 7 μg of DNA, vs 2 μg of DNA by DOGSDSO",COS 1 cells; COS-1 cells,only one third of that of 2 μg of DNA transferred by DOGSDSO liposome
"CCCCCCCC/C=C\CCCCCCCC(=O)OCC(C[N+](C)(C)C)OC(=O)CCCCCCC/C=C\CCCCCCCC (centres unmarked) [DOTAP, 1,2-dioleoyl-3-trimethylammonium-propane, reference compound]",transfection activity from 2 hours to 48 hours transfection time,CHO cells [4]; [8],not statistically different from 2 hours to 48 hours transfection time (p>0.1220)
same,transgene expression efficiency (green fluorescence protein),CHO cells [6],5-6%
same,aggregation of transfection complexes,[7]; weight ratios of DOTAP to DNA bigger than 2:1,form large aggregates

# Reference: patent US6153434A, “Methods for the intracellular delivery of substances” (University of Florida, priority 1999, dated 2000)
